# Reference: patent publication US20220194952A1, “TETRAPYRROLIC CONJUGATES AND USES THEREOF FOR IMAGING” (Health Research, Inc., priority 2019, published 2022)
# How the values were obtained:
# Colon26 tumors [1] = assay: In vivo PDT efficacy; set-up: species or system BALB/c mice; details: dose 1 μmol/kg; light 135 J/cm^2, 75 mW/cm^2 at 24 h postinjection; 5 mice/group
# Protocol: Tumors were exposed to light (135 J/cm^2, 75 mW/cm^2) at 24 h (hour) postinjection (optimal time for tumor uptake for both the PSs).
# For determining the in vivo imaging and therapeutic potential of 2, BALB/c mice (5-10 mice/group) bearing Colon26 tumors were used. In brief, 1×10^6 Colon26 cells were injected in mice subcutaneously. The tumors were left to grow for 1 week until they achieve the desired size (3-5 mm) for treatment. The photosensitizer was injected intravenously following the animal protocol approved by RPCI IACUC committee. Irradiance occurred 24 hours after i. v. injection; light dose was 135 J/cm^2 at a dose rate of 75 mW/cm^2 using the near-IR wavelengths of interest: 665 nm or 789 nm.
# Two axes of the tumor (L, longest axis; W, shortest axis) were measured in millimeters with the aid of a Vernier caliper. Tumor weight (mg) was estimated as a formula: tumor weight=1/2 (L×W2). Tumor measurements were taken daily for the first 10 days and at least three tine a week for the first 4 weeks of post therapy and twice a week thereafter. Endpoints were 400 mm^3 tumor volume or 60 days.
# [2] = Singlet oxygen phosphorescence at 1270 nm, methanol, pulsed laser 532 nm; assay type: physicochemical; details: near 5 μM, equi-absorbant at 532 nm, excited at 532 nm
# Protocol: The photosensitizers, e. g., HPPH (control), 2 and 4 were individually dissolved in methanol (concentration: 5 μM) in polystyrene cuvettes and excited at 532 nm using a pulsed laser. Phosphorescence of singlet oxygen was detected at 1270 nm.
# Before evaluating the imaging and photosensitizing potential of the chlorin 4 with extended ring system, its singlet oxygen producing ability was compared with the related chlorin 2. In brief, both compounds were individually dissolved in methanol in equi-absorbant (at 532 nm) concentrations near 5 μM and excited at 532 nm using a pulsed laser. The phosphorescence of singlet oxygen was detected at 1270 nm. From the results summarized in FIG. 4, it can be seen that compared to chlorin 2 with a five-member isocyclic ring, the related analog 4 with an extended ring system had remarkably lower singlet oxygen producing ability. Singlet oxygen quantum yields were φ=0.29 and φ=0.02 respectively, compared to HPPH φ=0.45.
# [3] = Photobleaching in 17% bovine calf serum; assay type: physicochemical; details: 660 nm
# Protocol: Photobleaching was performed in quartz cuvettes on a 5 μM solution of 2 and a 25 μM solution of 4 in 17% BCS. The higher molarity was chosen to approximate the absorbance of 2 at 5 μM. A dye laser was used at dose rate 75 mW/cm^2, and excitation wavelength for 2 was 660 nm and for 4 was 785 nm.
# In photodynamic therapy, photobleaching is the photochemical alteration of a chromophore or a fluorophore molecule such that could either permanently is unable to fluoresce or alter its fluorescence characteristics. This is caused by cleaving of the covalent bonds or non-specific reaction between the reactive oxygen species (e.g., singlet oxygen) and the molecule. These […] species formed by conversion of the molecular oxygen present in tumor to singlet oxygen by exposing the photosensitizer with light at an appropriate wavelength. The rate of photobleaching of the PS should depend (a) availability of oxygen, (b) photostability of PS and finally (c) the singlet oxygen (or other reactive oxygen species) producing ability of the PS.
# To investigate the photobleaching characteristics of the photosensitizers, compounds 2 and 4 in equimolar concentrations (5 μM) were taken in quartz cuvettes in 17% bovine calf serum. Dye lasers with appropriate wavelength (2: 660 nm and 4: 785 nm) were used at a dose rate of 75 mW/cm^2. Both the compounds in formulated forms were irradiated with light and the absorption spectra at their long wavelength absorptions were measured with time. The decay in absorbance was plotted against the time of light exposure.
# Colon26 cells = assay: In vitro cytotoxicity (PDT) MTT assay; assay type: cell-based
# Protocol: Drug concentrations were increased 10× (0.25 to 32.0 μM) and a significant cytotoxicity was observed only at high concentrations at the highest light dose.
# Assessment of cell growth following treatment with compound solutions alone and after light exposure was determined by a colorimetric assay that measured the reduction of yellow 3-(4,5-dimethythiazol-2-yl)-2,5-diphenyl tetrazolium bromide (MTT) by mitochondrial succinate dehydrogenase.
# Briefly cells were plated into 96 well plates, allowed to adhere to the plate and are treated with a range of compound concentrations for various lengths of time. The light source consisted of dye lasers (375; Spectra-Physics, Mt. View, Calif.) pumped by an argon-ion laser (either 171 or 2080; Spectra-Physics). The dye lasers were tuned to the appropriate wavelength for the compound being tested. Total light doses were ranged from 0.125 to 1.0 J/cm^2 at a fluence rate of 3.2 mW/cm^2. At 48 hours post PDT treatment, MTT was added. The solubilized formazan product was measured spectro-photometrically using a BIOTEK EL-800 plate reader. Data were processed using GEN5 software. A medium blank value was subtracted from all samples and Optical Density (O.D.) values of treated cells were divided by mean O.D. value of untreated cells for each light dose).
# Colon26 cells were plated and allowed to adhere for 4 hours, then the photosensitizer was added and incubated at 37° C. for 24 hours. Plates were irradiated with 789 nm light from a dye laser at 3.2 mW/cm^2 for a total dose of 0.25 to 1.0 Joule/cm^2.
# [4] = Absorbance (UV-VIS) in methanol; assay type: physicochemical; details: ε665 for 2 (peak 660 nm), ε785 for 4 (peak 785 nm)
# Protocol: Absorbance of 2 and 4 was measured using different concentrations in methanol on UV-VIS and indicates far-red peaks at 660 nm and 785 nm, with extinction coefficients ε665=47,500 L·mol^−1 cm^−1 and ε785=18,100 L·mol^−1 cm^−1 respectively.
# Chemistry Methods: All reactions were carried out in heat gun-dried glassware under an atmosphere of nitrogen and magnetic stirring. Thin layer chromatography (TLC) was done on pre-coated silica gel sheets (layer thickness 0.2 mm). Column chromatography was performed either using silica gel 60 (70-230 mesh) or neutral alumina grade III. In some cases preparative TLC was used for the purification of compounds. Purity of the compounds was ascertained by TLC and HPLC analysis. All compounds including the intermediates were >95% pure. UV-visible spectra were recorded on FT UV-visible spectrophotometer using methanol as a solvent. Mass spectrometry analyses were performed at the Mass Spectrometry Facility, University at Buffalo, N.Y. Compounds 1 and 2 were synthesized by following the methodologies previously described.
# Colon26 tumors [5] = assay: In vivo whole body tumor fluorescence imaging (IVIS Spectrum); set-up: species or system BALB/c mice; details: non-radioactive analogs, i.v., post-injection
# Protocol: Before evaluating in vivo PDT efficacy of PS 4 by exposing the tumors with light, the time point for optimal tumor uptake of PS was determined by whole body fluorescence imaging of tumored mice at various time points after injecting the PS.
# The multi-spectral imaging system, IVIS Spectrum (Perkin-Elmer) along with Living Image (image acquisition and analysis software) was used. IVIS Spectrum has the capability to use either trans-illumination (from the bottom) or epi-illumination (from the top) to illuminate in vivo fluorescent sources. […] Regions of interest (ROI) were defined for areas of compound accumulation (tumor, liver, skin) and total and average signal within the region were recorded. Fluorescent intensity is expressed as the total radiant efficiency ([p/s]/[μW/cm^2]. Results are expressed as mean total radiant efficiency of three mice±SD.
# Colon26 tumors [6] = assay: In vivo biodistribution of 124I-analogs; set-up: species or system BALB/c mice; details: for organ distribution (in words): ethanol/PBS formulation, i.v., 24, 48, 72 hours
# Protocol: From left to right, each group is 24 hours 2, 48 hours 2, 72 hours 2, 24 hours 6, 48 hours 6, and 72 hours 6.
# The labeled product, 6, was collected and dried.
# Colon26 tumors [7] = assay: PET imaging of 124I-analogs; details: ethanol/PBS formulation, 25 μCi/mouse
# Protocol: Compounds were resuspended in 10% ethanol saline, and ˜50 μCi were injected per mouse.
# Final product was formulated in 10% ethanol in saline for injection in mice for PET imaging and biodistribution studies. Formulations noted as Pluronic® were formulated in 2% Pluronic® F-127 in saline. Mice were injected with 50 μCi (˜100 μL) for biodistribution, or 100 μCi (˜200 μL) for PET imaging.
molecule,measurement,setting,value
"CCC1=C(C)c2cc3[nH]c(cc4nc(c5c6[nH]c(cc1n2)c(C)c6C(=O)C5)[C@@H](CCC(=O)OC)[C@@H]4C)c(C)c3C(C)OCc1cccc([124I])c1 (stereo partly shown) [Compound 2, methyl 3-[1′-(m-iodobenzyloxy)ethyl]-3-devinyl pyropheophorbide]",tumor cure after PDT,Colon26 tumors [1],80%
same,Singlet oxygen quantum yield φ,[2],0.29
same,photobleaching experimental endpoint reached,"[3]; 5 μM in 17% BCS, 75 mW/cm^2",20%
same,fraction photobleached,"[3]; 17% bovine calf serum, 5 μM, 75 mW/cm^2, by three hours",80%
same,in vitro cytotoxicity at 10× increased drug concentrations (in words),"Colon26 cells; 0.25 to 32.0 μM, significant cytotoxicity only at high concentrations at the highest light dose (FIG. 8B)",toxic effects only at high concentrations
same,in vitro cytotoxicity (in words),"Colon26 cells; variable drug concentrations, fixed light dose 1.0 J/cm^2 (FIG. 8A)",light dose-dependent cytotoxicity
same,extinction coefficient at far-red absorbance peak,[4],"47,500 L·mol^−1 cm^−1"
same,time of optimal uptake in tumor (fluorescence imaging),Colon26 tumors [5],24 h
"CCC1=C(C)c2cc3[nH]c(cc4nc(c5c6[nH]c(cc1n2)c(C)c6C(=O)C5)[C@@H](CCC(=O)OC)[C@@H]4C)c(C)c3C(C)OCc1cccc(I)c1 (stereo partly shown) [Compound 2a, 3-(1′-m-iodobenzyloxy) ethyl-3-devinyl-pyropheo phorbide-a methyl ester, reference compound]",organ distribution (in words),Colon26 tumors [6],significantly high uptake in spleen
same,time of maximum tumor uptake (PET),Colon26 tumors [7],24 h
"CCC1=C(C)c2cc3[nH]c(cc4nc(c5c6[nH]c(cc1n2)c(C)c6C=C(OC)C5=O)[C@@H](CCCC(=O)OC)[C@@H]4C)c(C)c3[C@H](C)OCc1cccc([124I])c1 [Compound 6, Methyl 3-[1′-(m-^124iodobenzyloxy)ethyl]-3-devinyl-13^3-keto-13^2methoxycyclohexene (verdin)]",tumor uptake,"Colon26 tumors [6]; BALB/c mice implanted with Colon26 tumors, i.v.",> 9 % of the injected dose
same,organ distribution (in words),Colon26 tumors [6],significantly higher uptake in tumor than other organs
HPPH,Singlet oxygen quantum yield φ,[2],0.45
